US20100331363A1, “TREATMENT OF MITOCHONDRIAL DISORDERS USING A FARNESYL TRANSFERASE INHIBITOR” (Link Medicine Corporation, priority 2008, published 2010)
Entries after “also recorded” stand apart in the source; their conditions may differ.

Experiments:
[1] = system: isolated islets / INS1; assay: Oxygen consumption, Seahorse XF24 bioenergetic assay; type: cell-based; details: 1 nM
Experimental: Impaired mitochondrial function is shown by a decreased rate of oxygen consumption. […] The effect of LNK-754 at 1 nM and 10 nM doses on oxygen consumption was determined. Oxygen consumption in INS1 was measured using a Seahorse XF24 bioenergetic assay. Assays have been previously described in detail (See, Wu M, et al. Am J Physiol Cell Physiol 2007; 292:C125-36).

[2] = system: 3T3H-ras (61 L) xenograft tumor; Ras farnesylation; details: continuous infusion, 7 day treatment, cited from earlier work
[3] = system: Aβ; assay: h-APPs1 transgenic mouse, Aβ levels; type: in vivo; details: 0.9 mg/kg once every 24 hr, three months
Source text: Finally, it is important to note that LNK-754-TS had no effect on APP processing and secretion in a cell culture model of pathogenic Aβ production (Selkoe, D. J., et al. Ann N Y Acad Sci 777, 57-64 (1996)).

[4] = system: HDJ2; assay: Inhibition of HDJ2 farnesylation in SH-SY5Y cells; type: cell-based, human; details: continuous exposure over long periods
[5] = system: TAU441 transgenic mice; assay: Porsolt forced swim task in TAU441 transgenic mice; type: in vivo, mouse; details: 0.09 mg/kg daily for 90 days
Source text: Tests relevant to depression-like behaviors in rodents are primarily stress-induced reductions in avoidance or escape, termed behavioral despair. One of the most widely used animal tests for depression is the Porsolt forced swim task (Porsolt et al., Arch. Int. Pharmacodyn. Ther. 229(2):327-36, 1977; Porsolt et al., Eur. J. Pharmacol. 47(4):379-91, 1978). This study was designed to evaluate the effects of treatment with LNK-754 on behavior of TAU441 transgenic mice. At start of the treatment, the animals were 5 months old. Untreated non-transgenic animals of the same age were tested and sacrificed serving as the baseline group. Mice received vehicle or LNK-754-TS at a dose of 0.09 mg per kg, 7 days a week for 90 days. In the last week of the treatment period and before sacrifice, mice were evaluated using the Porsolt forced swim task (FIG. 10B).

[6] = system: Ras; assay: Inhibition of Ras farnesylation in SH-SY5Y cells; type: cell-based, human; details: continuous exposure over long periods, average
[7] = system: APP/PS1 transgenic mice; assay: Morris water maze in APP/PS1 transgenic mice; type: in vivo, mouse; details: 0.9 mg/kg once every 24 hours, vs vehicle
Experimental: Animals and treatments: Male and female human WT alpha-synuclein over-expressing transgenic mice^32 at 6 months of age were given vehicle (10% beta-cyclodextrin) or LNK-754-TS (0.09, 0.9 and 9 mg/kg) per oral gavage twice daily for 3 months or animals at 7 months of age were given vehicle (2.5% beta-cyclodextrin) or LNK-754-TS (2 mg/kg) once every three days for 3 months. Male and female TAU transgenic mice expressing TAU441 bearing the missense mutations V337M^50 and R406W under the control of the murine Thy-1 promoter with a CB6xC57BL/6 background were 5 months old at the time when the oral treatment for three months with LNK-754-TS (0.9 and 0.09 mg/kg) as well as vehicle (2.5% beta-cyclodextrin) was started. Female human APP/PS1 (APP (London V7171)/PS1(A246E)) over-expressing transgenic mice were treated with LNK-754-TS (0.9 mg/kg) or vehicle (2.5% beta-cyclodextrin) for 2 months or 12 days.
Morris water maze (MWM) analysis of cognitive performance: In APP/PS1 transgenic animals, swimming behavior in a Morris Water Maze was videotaped and analyzed (Ethovision, Noldus, Wageningen, Netherlands). For mice, a place navigation test was used to locate the hidden platform in five blocks of three trials over three consecutive days. […] The time each mouse needed for location of the platform was measured. […] The time and path length each rat needed to locate the platform was measured. […]

[8] = system: aged non-transgenic rats; assay: Morris water maze in aged non-transgenic rats; type: in vivo, rat; details: aged rats 22 months, 0.3 mg/kg and 0.9 mg/kg once every 24 hours
Source text: Morris water maze (MWM) analysis of cognitive performance: In APP/PS1 transgenic animals, swimming behavior in a Morris Water Maze was videotaped and analyzed (Ethovision, Noldus, Wageningen, Netherlands). For mice, a place navigation test was used to locate the hidden platform in five blocks of three trials over three consecutive days. Each trial consists of a forced swim test of maximum 120 seconds, followed by 60 seconds of rest. The time each mouse needed for location of the platform was measured. For rats, a cued learning phase was first conducted, consisting of 3 trials per day for 5 days, using a visible platform of varying location. Each trial consisted of a forced swim test of maximum 60 seconds, followed by 10 minutes of rest. The time and path length each rat needed to locate the platform was measured.
In order to rule out the possibility that the rapid observed improvement in cognition described above arose from an alternative, transgene-independent mechanism, aged non-transgenic rats (22 months old) were treated with LNK-754-TS (0.3 mg/kg and 0.9 mg/kg, once every 24 hours) and their cognitive performance was measured by MWM and compared to that of younger rats (3 months old) of the same strain.

Row | SMILES | oxygen consumption (OCR) [1] | inhibition of Ras farnesylation at which significant inhibition of tumor growth was seen ([2]; tumor tissue) | continuous serum level at which significant inhibition of tumor growth was seen [2] | amounts of more soluble Aβ42 species [3] | cortical Aβ immunoreactivity and Aβ in insoluble fractions [3] | IC50 [4] | behavior compared with non-transgenic mice, forced swim task [5] | floating, forced swim task ([5]; vs vehicle) | struggling behavior, forced swim task ([5]; vs vehicle) | IC50 [6] | cognitive performance, Morris water maze ([7]; 12 days) | performance in the Morris water maze ([7]; two months) | cognitive performance, Morris water maze (place learning, probe tests) [8]
1 | C#Cc1cccc(-c2cc(=O)n(C)c3ccc([C@](O)(c4ccc(Cl)cc4)c4cncn4C)cc23)c1 [LNK-754, (R)-6-[(4-chlorophenyl)-hydroxyl-(1-methyl-1-H-imidazol-5-yl)-methyl]-4-(3-ethynylphenyl)-1-methyl-2-(1H)-quinonlinone] | increases oxygen consumption | at least 50% | above 100 ng/mL |  |  |  |  |  |  |  |  |  | 
2 | C#Cc1cccc(-c2cc(=O)n(C)c3ccc([C@](O)(c4ccc(Cl)cc4)c4cncn4C)cc23)c1 [LNK-754-TS, (R)-6-[(4-chlorophenyl)-hydroxyl-(1-methyl-1-H-imidazol-5-yl)-methyl]-4-(3-ethynylphenyl)-1-methyl-2-(1H)-quinonlinone (2S, 3S)-dihydroxybutanedioate] |  |  |  | small reduction | did not significantly reduce | 10 nM | behaved similar to non-transgenic mice; also recorded: behaved similarly to non-tg mice | significantly less floating; also recorded: decreasing floating behavior | higher percentage of struggling behavior; also recorded: increasing struggling behavior | 1 nM | significant cognitive improvement | performed significantly better; also recorded: significant cognitive improvement | no significant cognitive improvement
